Test results published in PMC10615251 (Biochemistry, 2023).

Key:
[1] = test system: T1, UDP-α-D-glucuronate 6-decarboxylase (HS:15.19); test: anion exchange chromatography of UDP-xylose formed, […] nm; assay type: biochemical, Campylobacter jejuni; conditions: 50 mM phosphate pH 6.5
T1 construct: gene HS15.19

[2] = test system: T2, UDP-α-D-glucose 6-dehydrogenase (HS:15.18); conditions: read-out: KNAD (apparent); 1.0 mM UDP-D-glucose, 50 mM triethanolamine pH 8.7, 25 °C
T2 construct: gene HS15.18

[3] = test system: T3, UDP-α-D-xylose 4-epimerase (HS:15.17); conditions: read-out: KUDP-xyl (apparent); 50 mM HEPES/KOH pH 8.0, 25 °C
T3 construct: gene HS15.17

## NC(=O)c1ccc[n+]([C@@H]2O[C@H](COP(=O)(O)OP(=O)(O)OC[C@H]3O[C@@H](n4cnc5c(N)ncnc54)[C@H](O)[C@@H]3O)[C@@H](O)[C@H]2O)c1 [NAD^+]
[1]; 2.5 mM UDP-D-glucuronate
  Ka (activation constant, concentration at 1⁄2 saturation): 17 ± 5 µM
[2]
  Km: 120 ± 10 µM

## O=C(O)[C@H]1O[C@H](OP(=O)(O)OP(=O)(O)OC[C@H]2O[C@@H](n3ccc(=O)[nH]c3=O)[C@H](O)[C@@H]2O)[C@H](O)[C@@H](O)[C@@H]1O [compound 4, UDP-α-D-glucuronate]
[1]; read-out: KUDP-glc (apparent), 0.30 mM NAD+
  Km: 250 ± 30 µM

## O=c1ccn([C@@H]2O[C@H](COP(=O)(O)OP(=O)(O)O[C@H]3OC[C@@H](O)[C@H](O)[C@H]3O)[C@@H](O)[C@H]2O)c(=O)[nH]1 [compound 5, UDP-α-D-xylose]
[3]
  Km: 125 ± 13 µM
